Test system: flank organ
Assay: topical antiandrogenic activity test (hamster flank organ, Voigt and Hsia)
Format: in vivo, hamsters
Conditions: 21 days
Procedure: The test was carried out on sexually immature female hamsters aged 6-8 weeks and weighing 65-90 grams.
At the beginning of the tests, the back of each animal was shaved to evidence the respective flank organ bilaterally. Animals were then subdivided into homogeneous groups and treated daily for 21 consecutive days. The tested steroids were dissolved at concentrations ranging from 100 to 400 micrograms in 50 microliters of an acetone solution containing 4 micrograms of testosterone propionate (TP) or 4 micrograms of dihydrotestosterone (DHT). 50 microliters of the solutions were applied to the right flank organ, while the contralateral organ used as individual control received only acetone (50 microliters). Control groups received TP or DHT alone, following the same procedures.
At the end of the tests, the animals were killed under ether anesthesia and the whole skine of the back was taken. The area of both flank organs was measured, separately, with transillumination. The mean differences between areas treated with the tested steroids and those treated with the carrier alone were calculated for each group, and said mean differences were compared, as inhibition percentages, to the mean differences between the areas in the control groups treated with either TP or DHT.

[1] = androgen alone (control group), 4 μg daily, topical
[2] = DHT 4 μg + compound 400 μg daily, topical on right flank organ, female hamsters
[3] = TP 4 μg + compound 400 μg daily, topical on right flank organ, female hamsters
[4] = versus DHT control, DHT 4 μg + compound 400 μg daily, topical
[5] = versus TP control, TP 4 μg + compound 400 μg daily, topical

| Structure (SMILES) | Mean difference of the areas [1] [mm^2] | Mean difference of the areas [2] [mm^2] | Mean difference of the areas [3] [mm^2] | % inhibition [4] [%] | % inhibition [5] [%] |
| --- | --- | --- | --- | --- | --- |
| CCC(=O)O[C@H]1CC[C@H]2[C@@H]3CCC4=CC(=O)CC[C@]4(C)[C@H]3CC[C@]12C [TP, testosterone propionate, reference compound] | 22.7 ± 2.3 | – | – | – | – |
| C[C@]12CCC(=O)C[C@@H]1CC[C@@H]1[C@@H]2CC[C@]2(C)[C@@H](O)CC[C@@H]12 [DHT, dihydrotestosterone, reference compound] | 20.8 ± 2.5 | – | – | – | – |
| CCCC(=O)OCC(=O)[C@@]1(OC(=O)CCC)CC[C@H]2[C@@H]3CCC4=CC(=O)CC[C@]4(C)C3=CC[C@@]21C [Ex. 1, 17α,21-dibutanoyl-pregna-4,9-diene-3,20-dione] | – | 3.7 ± 0.7 | 2.4 ± 1.1 | 82 | 89 |
| CCC(=O)O[C@]1(C(=O)CO)CC[C@H]2[C@@H]3CCC4=CC(=O)CC[C@]4(C)C3=CC[C@@]21C [Compound A, 17α-propionyl-21-hydroxy-pregna-4,9-diene-3,20-dione] | – | 9.7 ± 1.8 | 3.7 ± 1.1 | 53 | 84 |
| CCCC(=O)OCC(=O)[C@@]1(O)CC[C@H]2[C@@H]3CCC4=CC(=O)CC[C@]4(C)C3=CC[C@@]21C [Ex. 2, 17α-hydroxy-21-butanoyl-pregna-4,9-diene-3,20-dione] | – | 4.1 ± 0.5 | 3.3 ± 1.2 | 80 | 85 |

Source: patent US8143240B2, “17α, 21-dihydroxypregnene esters as antiandrogenic agents” (Cosmo S.p.A., priority 2001, dated 2012)
